Test results reported in US20190055212A1, “HISTONE DEMETHYLASE INHIBITORS” (priority 2016, published 2019).

Target: KDM5B enzyme (Homo sapiens, UniProt Q9UGL1)
Experiment: KDM5B HTRF (TR-FRET) demethylase inhibition assay
Assay type: biochemical
Details: 1.2 nM KDM5B, 30 nM Biotin-H3K4Me3 1-21 substrate, 10 point dose-response
Method: Ten point dose-response curves for compounds shown in Table 1 were determined using a homogeneous time resolved fluorescence (HTRF) assay (Reaction Biology Corp, Malvern, Pa.). This assay combines fluorescence resonance energy transfer (FRET) with time resolve (TR) measurements (TR-FRET). The KDM5B α-ketoglutarate-dependent demethylase activity is calculated by measuring demethylation of a biotin labeled histone tri-methylated H3K4 substrate using an europium-cryptate (Eu)-labeled antibody donor specific for dimethylated histone H3K4 and a Streptavidin-XL665 acceptor that binds to the biotin group of substrate, and detecting FRET by exciting the reaction mixture at 320 nm and reading dual emissions at 615 nm and 665 nm.
Briefly, compounds disclosed herein were solubilized in DMSO and a series of 10, three-fold serial dilutions were made for each compound in 100% DMSO. The initial starting concentration for the serial dilutions of each compound was 10 μM or 100 μM. Control samples lacking compound, KDM5B enzyme or various reaction components also were prepared and processed in parallel with compound test samples.
An aliquot of each serial dilution of test compound was added to a 384 well plate (Corning Cat #3572) containing 1.2 nM KDM5B enzyme suspended in 50 mM Hepes, pH7.5, 50 mM NaCl, 0.01% Tween 20, 0.1% BSA, and 1% DMSO (final concentrations) in a 10 microliter reaction volume using a LABCYTE ECHO liquid handler. The samples were mixed, subjected to centrifugation and the plate was pre-incubated at room temperature for 15 min, to which 30 nM Biotin-H3K4Me3 1-21 substrate (Anaspec Cat #64192), 20 μM […] and 20 μM α-ketoglutarate co-factors, and 100 μM Ascorbate were added to initiate the enzymatic reaction. The reaction mixture was incubated at room temperature for 45 minutes. A 10 μl aliquot of a detection mixture of Eu-labeled anti-histone H3K4Me2 antibody (CisBIO Cat #610AXLB) and Streptavidin-XL665 (CisBIO Cat #610 SAXLB) in 200 mM potassium fluoride and 10 mM EDTA was added and kinetic measurements were read at 5 minute intervals for a period of 30 minutes using an Envision Multiplate Reader (PerkinElmer Model 2102; excitation at 320 nm and emmission reads at 615 nm and 665 nm). The IC50 value for each compound was determined from the 665/615 ratio obtained for each 10 point dose-response curve using GraphPad Prism 4 software with a sigmodial dose response. Key: “A”≤100 nM; “B”>100 nM-≤500 nM; “C”>500 nM and N/D is not determined.

Sequence of KDM5B enzyme (Q9UGL1 whole entry): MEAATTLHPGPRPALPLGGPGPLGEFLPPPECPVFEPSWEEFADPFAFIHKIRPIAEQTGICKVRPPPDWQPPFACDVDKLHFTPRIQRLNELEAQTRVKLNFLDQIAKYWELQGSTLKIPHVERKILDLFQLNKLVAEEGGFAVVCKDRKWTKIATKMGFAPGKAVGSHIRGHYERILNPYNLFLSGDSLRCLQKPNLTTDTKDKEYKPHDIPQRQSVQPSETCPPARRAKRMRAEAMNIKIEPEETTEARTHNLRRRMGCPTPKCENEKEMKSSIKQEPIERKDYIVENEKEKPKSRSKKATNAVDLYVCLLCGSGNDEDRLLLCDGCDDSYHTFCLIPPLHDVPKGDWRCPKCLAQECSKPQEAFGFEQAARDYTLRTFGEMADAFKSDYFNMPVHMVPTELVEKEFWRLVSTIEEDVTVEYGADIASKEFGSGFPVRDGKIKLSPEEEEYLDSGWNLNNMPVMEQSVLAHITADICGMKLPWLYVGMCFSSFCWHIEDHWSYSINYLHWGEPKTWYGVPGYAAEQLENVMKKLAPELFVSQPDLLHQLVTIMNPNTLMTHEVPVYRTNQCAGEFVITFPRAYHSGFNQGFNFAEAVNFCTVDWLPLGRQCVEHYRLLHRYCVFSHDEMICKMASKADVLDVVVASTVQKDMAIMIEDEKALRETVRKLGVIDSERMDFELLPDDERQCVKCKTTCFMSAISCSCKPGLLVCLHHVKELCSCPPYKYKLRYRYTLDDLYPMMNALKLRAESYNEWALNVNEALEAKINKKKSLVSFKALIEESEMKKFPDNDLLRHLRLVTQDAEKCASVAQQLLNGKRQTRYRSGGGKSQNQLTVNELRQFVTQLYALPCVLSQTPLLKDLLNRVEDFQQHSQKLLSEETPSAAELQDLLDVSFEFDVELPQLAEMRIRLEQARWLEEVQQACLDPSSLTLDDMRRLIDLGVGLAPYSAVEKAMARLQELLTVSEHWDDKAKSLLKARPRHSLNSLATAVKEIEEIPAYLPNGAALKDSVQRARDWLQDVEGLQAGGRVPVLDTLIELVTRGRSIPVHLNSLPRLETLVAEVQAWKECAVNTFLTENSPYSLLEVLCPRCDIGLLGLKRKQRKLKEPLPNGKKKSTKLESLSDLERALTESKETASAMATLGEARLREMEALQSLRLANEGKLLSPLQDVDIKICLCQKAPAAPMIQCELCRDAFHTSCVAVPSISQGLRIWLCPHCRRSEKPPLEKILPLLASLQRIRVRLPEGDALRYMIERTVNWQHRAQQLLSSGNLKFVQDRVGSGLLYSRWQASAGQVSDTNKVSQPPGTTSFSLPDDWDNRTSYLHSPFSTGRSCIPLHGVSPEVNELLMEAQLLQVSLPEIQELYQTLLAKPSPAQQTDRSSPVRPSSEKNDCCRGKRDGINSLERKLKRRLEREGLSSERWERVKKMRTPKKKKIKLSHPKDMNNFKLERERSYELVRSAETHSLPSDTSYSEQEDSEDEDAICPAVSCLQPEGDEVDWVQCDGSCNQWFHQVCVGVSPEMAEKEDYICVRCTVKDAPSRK

Compound	IC50
O=C(O)c1ccnc(-c2nc3ccccc3n2Cc2ccc(Cl)cc2)c1 [Example 1]	100 to 500 nM
COc1ccc(CCn2c(-c3cc(C(=O)O)ccn3)nc3ccccc32)cc1 [Example 3]	100 to 500 nM
COc1cc(C)ccc1CCn1ccnc1-c1cc(C(=O)O)ccn1 [Example 5]	> 500 nM
COc1cc(Cl)ccc1CCn1ccnc1-c1cc(C(=O)O)ccn1 [Example 6]	100 to 500 nM
Cc1cc(Cl)ccc1CCn1ccnc1-c1cc(C(=O)O)ccn1 [Example 7]	100 to 500 nM
O=C(O)c1ccnc(-c2nccn2CCc2ccc(Cl)cc2)c1 [Example 8]	> 500 nM
N#Cc1ccccc1Cn1ccnc1-c1cc(C(=O)O)ccn1 [Example 9]	100 to 500 nM
O=C(O)c1ccnc(-c2nccn2Cc2ccc(Cl)cc2)c1 [Example 10]	100 to 500 nM
CCN1CCN(c2ccc(Cn3ccnc3-c3cc(C(=O)O)ccn3)c3c2CCCC3)CC1 [Example 11]	> 500 nM
Cn1cc(-c2ccccn2)nc1-c1cc(C(=O)O)ccn1 [Example 13]	> 500 nM
O=C(O)c1ccnc(-c2ncc(CO)n2CCc2ccc(Cl)cc2)c1 [Example 14]	100 to 500 nM
Cc1ccc(-n2ccnc2-c2cc(C(=O)O)ccn2)cc1 [Example 16]	100 to 500 nM
CN(Cc1ccc(F)cc1)Cc1ccc2nc(-c3cc(C(=O)O)ccn3)n(CCc3ccc(F)cc3)c2c1 [Example 28]	100 to 500 nM
O=C(O)c1ccnc(-c2ncc(-c3ccccn3)n2CCc2ccc(Cl)cc2)c1 [Example 31]	100 to 500 nM
O=C(O)c1ccnc(-c2ncc(-c3ccccn3)n2Cc2ccc(Oc3ccccc3)cc2)c1 [Example 34]	100 to 500 nM
COc1ccc(N(C)c2ccc(Cn3ccnc3-c3cc(C(=O)O)ccn3)cc2)cc1 [Example 36]	> 500 nM
CCc1ccc(N(C)c2ccc3c(c2)OCCC3Cn2ccnc2-c2cc(C(=O)O)ccn2)cc1 (stereo not drawn) [Example 42]	100 to 500 nM
COc1cc(CN2CCC(NCCc3ccccc3)CC2)ccc1Cn1ccnc1-c1cc(C(=O)O)ccn1 [Example 54]	100 to 500 nM
CN(Cc1ccccn1)Cc1cnc(-c2cc(C(=O)O)ccn2)n1CCc1ccc(F)cc1 [Example 62]	100 to 500 nM
CN(Cc1ccc(N2CCOCC2)cc1)Cc1cnc(-c2cc(C(=O)O)ccn2)n1CCc1ccc(F)cc1 [Example 66]	100 to 500 nM
O=C(O)c1ccnc(-c2ncc(CN(CCO)Cc3ccccc3)n2CCc2ccc(F)cc2)c1 [Example 70]	100 to 500 nM
CCc1ccc(N(C)c2ccc3c(c2)OCCC3Cn2c(-c3cc(C(=O)O)ccn3)nc3ccccc32)cc1 (stereo not drawn) [Example 88]	> 500 nM
COc1ccc(N(C)c2ccc3c(c2)OCCC3Cn2c(-c3cc(C(=O)O)ccn3)nc3ccccc32)cc1 (stereo not drawn) [Example 90]	> 500 nM

Other lines, results leading:

IC50	Compound
≤ 100 nM	COc1ccc(Cn2c(-c3cc(C(=O)O)ccn3)nc3ccccc32)cc1 [Example 2]
≤ 100 nM	COc1ccc(-n2c(-c3cc(C(=O)O)ccn3)nc3ccccc32)cc1 [Example 4]
≤ 100 nM	Cn1c(-c2ccccn2)cnc1-c1cc(C(=O)O)ccn1 [Example 12]
≤ 100 nM	CNC(=O)c1cnc(-c2cc(C(=O)O)ccn2)n1CCc1ccc(Cl)cc1 [Example 15]
≤ 100 nM	O=C(O)c1ccnc(-c2nc3ccccc3n2CC2CCOc3ccccc32)c1 (stereo not drawn) [Example 29]
≤ 100 nM	CN(CCc1cnc(-c2cc(C(=O)O)ccn2)n1CCc1ccc(F)cc1)Cc1ccc(Cl)cc1 [Example 47]
≤ 100 nM	O=C(O)c1ccnc(-c2ncc(CCN3CCC(c4cc(Cl)cc(Cl)c4)CC3)n2CCc2ccc(F)cc2)c1 [Example 51]
≤ 100 nM	CN(Cc1cnc(-c2cc(C(=O)O)ccn2)n1CCc1ccc(F)cc1)C1CCN(Cc2ccccc2)CC1 [Example 68]
≤ 100 nM	CN1CCN(Cc2cnc(-c3cc(C(=O)O)ccn3)n2CCc2ccc(F)cc2)C(c2ccccc2)C1 (stereo not drawn) [Example 72]
≤ 100 nM	O=C(O)c1ccnc(-c2ncc(CN3CCC(OC4CCCCC4)CC3)n2CCc2ccc(F)cc2)c1 [Example 74]
≤ 100 nM	O=C(O)c1ccnc(-c2ncc(CN3CCN(CCCOc4ccccc4)CC3)n2CCc2ccc(F)cc2)c1 [Example 76]
≤ 100 nM	O=C(O)c1ccnc(-c2ncc(CN3CCN(Cc4ccc(C(F)(F)F)cc4)CC3)n2CCc2ccc(F)cc2)c1 [Example 78]
≤ 100 nM	O=C(O)c1ccnc(-c2ncc(CN3CCCN(c4ccccc4)CC3)n2CCc2ccc(F)cc2)c1 [Example 82]
≤ 100 nM	O=C(O)c1ccnc(-c2ncc(CN3CCc4c([nH]c5ccccc45)C3)n2CCc2ccc(F)cc2)c1 [Example 86]
≤ 100 nM	CN1CCN(Cc2cnc(-c3cc(C(=O)O)ccn3)n2C)C(c2ccccc2)C1 (stereo not drawn) [Example 101]
≤ 100 nM	Cn1c(CN2CCN(Cc3ccc(C(F)(F)F)cc3)CC2)cnc1-c1cc(C(=O)O)ccn1 [Example 107]
